Test results reported in the METLIN SMRT retention time set (Domingo-Almenara et al. 2019).

Assay: gradient 5% acetonitrile 3 min, to 50% in 2 min, to 85% in 15 min, held 3 min, 100 µL/min
Settings: column: Zorbax Extend-C18 2.1 x 50 mm; eluents: water / acetonitrile, 0.1% formic acid
How it was run: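 Pure standards were run in mixtures of ~100 molecules by HPLC coupled to a quadrupole time-of-flight mass spectrometer. The column was a Zorbax Extend-C18 (2.1 × 50 mm, 1.8 μm) at 100 μL/min, with water and acetonitrile each containing 0.1% formic acid, in positive and negative ionization mode. Dead and dwell volumes were 40 μL and 900 μL. Retention time was taken from computationally picked adduct peaks, each manually inspected, with data collected over 3 months.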

RP-LC retention time [s]	SMILES
740	Cc1ccc(CNC(=O)Cn2ccc3sccc3c2=O)cc1
777	CC(C)C(=O)Nc1ccc(-n2cnc(C(=O)NC(C)c3ccc(F)cc3)c2)nc1 (stereo not drawn)
747	CCCc1noc(-c2ccnc(-n3cnc(C(=O)N4CCOCC4)c3)c2)n1
707	CC(C)c1nc(CNC(=O)c2ccccc2)no1
790	Cc1ccccc1OCC(=O)NCc1c(C)noc1C
996	CCOc1ccc(N2C(=O)C3N=NN(Cc4nc(-c5ccccc5Cl)no4)C3C2=O)cc1 (stereo not drawn)
682	O=C(NCCOc1ccc2nnc(-c3cccc(F)c3)n2n1)c1cc(=O)c2ccccc2o1
928	Cc1ccc(NC(=O)N2CCC(CCNC(=O)C3(c4ccccc4)CC3)CC2)cc1F
645	COc1ccc(CCC(=O)N2CCN(c3cc(C)c4ccccc4n3)CC2)cc1OC
700	Cc1ccccc1NC(=O)CC1COc2ccccc2NC1=O (stereo not drawn)
670	CCOC(=O)c1ccc(NC(=O)N(Cc2cccs2)C2CCN(CC)CC2)cc1
680	CCOC(=O)c1cccc(NC(=O)CSc2ccc(N3CCCC(C(=O)NC4CC4)C3)nn2)c1 (stereo not drawn)
1020	CCOC(=O)c1cc(C)nc2c1c(=O)n(Cc1ccc(OC)cc1)c(=O)n2C
955	Cc1ccc(C(=O)NC(C)CCc2ccccc2)cc1NC(=O)C1=CSCCO1 (stereo not drawn)
596	O=C(NCCSc1ncc(-c2ccccc2)[nH]1)NCc1cccs1
789	COc1cccc(NC(=O)Cn2c(=O)n(-c3ccccc3)c(=O)c3c2cc(C)n3C)c1
608	COC(=O)CCCC(=O)Nc1ccc2[nH]c(=O)oc2c1
931	O=C(NCc1ccccc1Cl)c1csc(C(=O)NC2CCCC2)n1
838	O=C(NC1CCN(c2cc(-c3ccccc3)[nH]n2)CC1)c1ccc(Cl)s1
872	Cc1nn(CC(=O)N2CCC(C)CC2)c(=O)c2nc(-c3ccccc3)sc12
1180	COc1ccc(Cl)cc1NC(=O)Cn1c(C)nc2c(sc3nc(-c4ccccc4)ccc32)c1=O
639	O=C(c1ccco1)N1CCC(n2cnnc2-c2ccccc2)CC1
894	CC(=O)Nc1ccc(NC(=O)C2CCCN(c3nccnc3Sc3ccc(C)cc3)C2)cc1 (stereo not drawn)
854	COc1ccc(-c2nc(N3CCSCC3)ncc2C(=O)O)cc1

RP-LC retention time [s]	SMILES
655	Cn1c(=O)n(C2CCN(C(=O)Cc3ccccc3)CC2)c2ncncc21
747	Cc1cccc(NC(=O)Nc2ccc3nnc(C)n3c2)c1
654	COc1cccc(-c2nnc(-c3ccc(-n4ccnc4)nc3)o2)c1
758	Cc1cccc(-c2nocc2CCC(=O)O)c1
763	Cc1c(C(=O)N(C)C)sc2nc(-c3ccccc3)c(NC(C)(C)C)n12
799	CCn1cc(S(=O)(=O)NCc2ccccc2F)c2cccnc21
1130	Cc1nc2cc(-c3noc(-c4ccncc4)n3)ccc2n(C2CCCC2)c1=O
748	COc1ccc(-c2cn3c(CC(=O)Nc4ccccc4OC)csc3n2)cc1
852	CCCn1cc(CCNC(=O)c2cc(Cl)ccc2F)c2cccnc21
659	COc1ccc(C(=O)N2CCC(c3cc(N)on3)CC2)cc1F
741	Cc1ccc(-c2csc(NC(=O)CSc3nc4c(cc3C#N)CN(C(C)C)CC4)n2)cc1
1350	COC(=O)c1cc2c(=O)n(-c3nc4ccc(Cl)cc4s3)ccc2nc1C
926	COc1ccc(-c2noc(CSc3nccn3-c3ccc(C)cc3)n2)cc1
661	CCOC(=O)c1noc2ncnc(NCC3CCN(Cc4ccccc4F)CC3)c12
662	CCCn1c(CCC(=O)Nc2ccc3c(c2)OCCO3)nc2cccnc21
644	Cc1cc(=O)n(CC(=O)Nc2ccc3c(c2)OCO3)c(N2CCOCC2)n1
1100	CCOc1ccc(-c2cc3c(=O)n(Cc4nc(-c5ccc6c(c5)OCO6)no4)ncn3n2)cc1
873	COc1ccc(-n2ccn3cc(-c4ccccc4)nc3c2=O)cc1Cl
742	Cc1ccc(Nc2c(-c3ccc(N(C)C)cc3)nc3ncccn23)cc1
1000	Cc1noc(C)c1S(=O)(=O)N(Cc1cccs1)Cc1cccn1C
789	Cc1nc(-c2ccccn2)cc2nn(CC(=O)N3CCCc4ccccc43)c(=O)n12
776	O=C(c1ccc(F)c(F)c1)N1CCC(n2c(-c3ccco3)nc3cccnc32)C1 (stereo not drawn)
902	CC1(C(=O)NCc2cccc(F)c2)CCCN(S(=O)(=O)c2ccccc2)C1 (stereo not drawn)
668	CCc1sc(N)nc1-c1ccc(OC)cc1

Further lines, the molecule ahead of its results:

SMILES	RP-LC retention time [s]
O=C(c1cn(-c2ccc(S(=O)(=O)N3CCCCC3)cc2)cn1)N1CCN(c2ccccn2)CC1	633
COc1ccccc1Nc1c(-c2ccc(OC)c(OC)c2)nc2cnccn12	806
Cc1ccc(NC(=O)Nc2cnn(-c3ncncc3N3CCOCC3)c2)cc1C	674
CCOc1ccc(C2=NC3(CCN(C(C)C)CC3)NC(c3cccc(OC)c3O)C2)cc1 (stereo not drawn)	608
O=C(Nc1cnc(N2CCOCC2)nc1)c1cc(F)ccc1Cl	746
O=C(Cn1cccc1-c1nnc(-c2ccccc2)o1)N1CCN(c2ccccc2)CC1	984
Cc1ccc(C(=O)N2CCc3c(c(C(=O)N4CCCC(C(=O)NC5CC5)C4)nn3C)C2)cc1 (stereo not drawn)	661
COC1CN(c2cccc(F)c2)C12CCN(Cc1ccc(F)c(F)c1)CC2 (stereo not drawn)	785
CCCCNC(=O)C1CCN(c2cc(N3CCCCC3)ncn2)CC1	642
CC(C)c1noc(C2CCCN(S(=O)(=O)c3cccs3)CCC(=O)NCC2)n1 (stereo not drawn)	787
O=C(Nc1ccc2c(c1)OCCO2)C1CCCN(C(=O)c2ccc(Cl)cc2)C1 (stereo not drawn)	815
Cn1ccc2c(cc(C(=O)N3CCN(c4ccccc4F)CC3)n2C)c1=O	723
CC1Oc2ccccc2C=C1/C=C1\Oc2cc(OC(=O)N(C)C)ccc2C1=O (stereo not drawn)	795
COc1cc(NC(=O)C2CN(S(=O)(=O)C3CC3)CC23CCCCC3)cc(OC)c1 (stereo not drawn)	955
Cn1c(N2CCCC(C(=O)NCCCN3CCC(Cc4ccccc4)CC3)C2)cc(=O)n(C)c1=O (stereo not drawn)	630
CCn1cnc(S(=O)(=O)N2CCCC(C(=O)NC3CCCCCCC3)C2)c1 (stereo not drawn)	788
CNC(=O)C1CCCN(c2nc3ncn(CC(=O)Nc4ccccc4OC)c(=O)c3s2)C1 (stereo not drawn)	649
CCCc1ccc(S(=O)(=O)N(C)CC2CCOCC2)cc1	1020
COc1ccc(-c2ncc3c(n2)CCN(C(=O)Nc2ccccc2Cl)C3)cc1	948
O=c1c2sccc2n(Cc2nc(-c3ccc(F)c(Cl)c3)no2)c(=O)n1-c1ccc(F)cc1	1090

SMILES	RP-LC retention time [s]
CCCNC(=O)CN1C(=O)C2CCCCN2c2ccc(S(=O)(=O)N(CC)CC)cc21 (stereo not drawn)	862
CCCNC(=O)C1CCCN(c2ccc(SCC(=O)Nc3ccccc3OCC)nn2)C1 (stereo not drawn)	736
Cc1noc(C)c1S(=O)(=O)N1CCC(Cc2nc(-c3ccncc3)n[nH]2)C1 (stereo not drawn)	619
CCS(=O)(=O)Nc1ccc(C2(C(=O)NCc3cccs3)CCCCC2)cc1	913
O=S(=O)(c1ccccc1C(F)(F)F)N1CCc2nc(-c3ccc(F)cc3)ncc2C1	1150
CNC(=O)Nc1ccc(C2(C(=O)N3CCN(c4ccccc4)CC3)CCC2)cc1	754
CN1[C@H]2C[C@H](OC(=O)[C@H](CO)c3ccccc3)C[C@@H]1[C@@H](O)C2	596
CCOc1ccc(C(=O)N2CCCN(c3cc(-c4ccc(Br)cc4)[nH]n3)CC2)cc1OCC	853
Cn1nc(-c2nnc(-c3ccccc3F)o2)c2c1CCN(S(=O)(=O)c1ccccc1Cl)C2	928
CCN1CCCn2cc(S(=O)(=O)N3CCN(c4ccccc4F)CC3)cc2C1=O	829
Cc1ccsc1C(=O)NCC1CN(C(C)C)CC12CCCCC2 (stereo not drawn)	652
CCCCOc1ccc(CNC(=O)c2cc3c(=O)n(C)ccc3n2C)cc1	848
CCCn1cc(C(=O)NCCCOC)c(S(=O)(=O)N2CCN(c3cccc(Cl)c3)CC2)n1	1020
CCN(C(=O)C1CCN(S(=O)(=O)c2ccc3c(c2)sc(=O)n3CC)CC1)c1ccccc1	942
CCC(=O)N(CCCOC)CC(=O)N1CCc2sccc2C1COc1ccccc1F (stereo not drawn)	912
O=C(COc1ccccc1)N1CC(F)(F)C[C@H]1c1nnc(C2CC2)o1	768
Cc1ccccc1N1CCN(C(=O)C2=CCN(Cc3cccc(F)c3)CC2)CC1	712
O=S(=O)(NCc1nc(-c2ccc(-c3csc(C4CC4)n3)cc2)no1)c1ccccc1	1100
COc1cc([C@@H]2c3cc4c(cc3[C@H](O)[C@@H](CO)[C@@H]2C(=O)NCc2ccc(F)cc2)OCO4)cc(OC)c1OC	720
Cn1c(=O)n([C@H]2CCCN(S(=O)(=O)Cc3ccccc3)C2)c2ncccc21	827
